Assay results reported in patent publication US6737383B1, “Herbicidal oxadiazolidines” (priority 1999, dated 2004).

Experiments:
[1] = tested on: crabgrass; experiment: Test B pre/postemergence crabgrass; format: in vivo, Digitaria sanguinalis
How it was run: (§1)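 Herbicidal effect was estimated by eye on a ten-point control scale after plants spent twelve to sixteen days in a greenhouse following soil or foliar treatment. Foliar sprays targeted plants at one to four leaves; all doses were formulated in a non-phytotoxic solvent with surfactant.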

[2] = tested on: soybean; experiment: Test B pre/postemergence soybean; format: in vivo, Glycine max
How it was run: as §1

[3] = tested on: wheat; experiment: Test B pre/postemergence wheat; format: in vivo, Triticum aestivum
How it was run: as §1

[4] = tested on: wild oat; experiment: Test B pre/postemergence wild oat; format: in vivo, Avena fatua
How it was run: as §1

[5] = tested on: smallflower flatsedge; experiment: Test B flood test smallflower flatsedge; format: in vivo, Cyperus difformis; settings: for Plant response rating, S. Flatsedge (0 to 10 scale, 0 is no effect, 10 is complete control) / S. Flatsedge plant response rating (0 to 10 scale, 0 is no effect, 10 is complete control): visual evaluation after twelve to sixteen days; for S. Flatsedge plant response rating (0 to 10 scale, 0 is no effect, 10 is complete control): under heading Pre-emergence
How it was run: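 Plants were grown to the 2-leaf stage before treatment with test chemical, then held in a greenhouse for twelve to sixteen days. Injury was visually rated against untreated controls on a 0–10 scale, where 0 is no effect and 10 is complete control.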

[6] = Postemergence, Rate 62 g/ha, scale 0 to 10, 0 is no effect, 10 is complete control
[7] = Postemergence, Rate 250 g/ha, scale 0 to 10, 0 no effect, 10 complete control
[8] = Preemergence, Rate 62 g/ha, scale 0 to 10 (0 no effect, 10 complete control)
[9] = Preemergence, Rate 125 g/ha, scale 0 to 10 (0 no effect, 10 complete control)
[10] = Preemergence, Rate 250 g/ha, scale of 0 to 10 where 0 is no effect and 10 is complete control
[11] = Preemergence, Rate 500 g/ha, scale 0 (no effect) to 10 (complete control)
[12] = Rate 125 g/ha, Postemergence, scale 0 to 10, 0 no effect, 10 complete control
[13] = Rate 500 g/ha, Postemergence, scale 0 to 10, 0 no effect, 10 complete control
[14] = Postemergence, Rate 125 g/ha, scale of 0 to 10 where 0 is no effect and 10 is complete control
[15] = Postemergence, Rate 250 g/ha, scale of 0 to 10, 0 is no effect, 10 is complete control
[16] = Postemergence, Rate 500 g/ha, scale of 0 to 10 where 0 is no effect and 10 is complete control
[17] = Preemergence, Rate 125 g/ha, scale of 0 to 10 where 0 is no effect and 10 is complete control
[18] = Preemergence, Rate 500 g/ha, scale of 0 to 10 where 0 is no effect and 10 is complete control
[19] = Rate 62 g/ha, flood test species, Pre-emergence
[20] = Rate 125 g/ha, flood test species
[21] = Rate 250 g/ha, Pre-emergence (flood test species), scale 0 to 10, 0 is no effect, 10 is complete control
[22] = Postemergence, Rate 125 g/ha, scale 0 to 10, 0 is no effect, 10 is complete control
[23] = Preemergence, Rate 62 g/ha, scale of 0 to 10 where 0 is no effect and 10 is complete control
[24] = Rate 62 g/ha, Postemergence, scale 0 to 10 (0 no effect, 10 complete control)
[25] = Rate 500 g/ha, Pre-emergence, flood test species, scale 0 to 10 (0 no effect, 10 complete control)
[26] = Postemergence, Rate 250 g/ha, scale 0 to 10
[27] = Preemergence, Rate 250 g/ha, scale 0 to 10, 0 is no effect, 10 is complete control
[28] = Preemergence, Rate 500 g/ha, scale 0 to 10, 0 is no effect, 10 is complete control
[29] = Rate 125 g/ha, Postemergence, scale 0 to 10, 0 is no effect, 10 is complete control

CCN(CC)C(=O)n1oc(=O)n(Cc2cccs2)c1=O [Compound 77]
Crabgrass plant response rating [1, 6]: 0
Crabgrass plant response rating [1, 7]: 0
Crabgrass plant response rating [1, 8]: 0
Plant response rating, Crabgrass [1, 9]: 2
Plant response rating, Crabgrass [1, 10]: 2
Crabgrass plant response rating [1, 11]: 3
Crabgrass plant response rating [1, 12]: 0
Crabgrass plant response rating [1, 13]: 0
Soybean plant response rating [2, 6]: 0
Soybean plant response rating [2, 7]: 1
Soybean plant response rating [2, 8]: 0
Plant response rating, Soybean [2, 9]: 0
Plant response rating, Soybean [2, 10]: 0
Soybean plant response rating [2, 11]: 0
Soybean plant response rating [2, 12]: 0
Soybean plant response rating [2, 13]: 1
Wheat plant response rating [3, 6]: 0
Wheat plant response rating [3, 7]: 0
Wheat plant response rating [3, 8]: 0
Plant response rating, Wheat [3, 9]: 0
Plant response rating, Wheat [3, 10]: 0
Wheat plant response rating [3, 11]: 0
Wheat plant response rating [3, 12]: 0
Wheat plant response rating [3, 13]: 4
Wild oats plant response rating [4, 6]: 0
Wild oats plant response rating [4, 7]: 0
Wild oats plant response rating [4, 8]: 0
Plant response rating, Wild oats [4, 9]: 0
Plant response rating, Wild oats [4, 10]: 0
Wild oats plant response rating [4, 11]: 0
Wild oats plant response rating [4, 12]: 0
Wild oats plant response rating [4, 13]: 3
S. Flatsedge plant response rating [5, 6]: 0
S. Flatsedge plant response rating ([5]; Rate 125 g/ha, Postemergence section (flood test species), scale 0 to 10, 0 no effect, 10 complete control): 0
S. Flatsedge plant response rating ([5]; Rate 500 g/ha, listed under Postemergence (flood test species), scale 0 to 10, 0 no effect, 10 complete control): 3
S. Flatsedge plant response rating ([5]; flood test, listed under Postemergence, Rate 250 g/ha, scale 0 to 10, 0 no effect, 10 complete control): 0

CCC(C)n1c(=O)on(C(=O)N(c2ccccc2)C(C)C)c1=O (stereo not drawn) [Compound 611]
Plant response rating, Crabgrass [1, 6]: 8
Plant response rating, Crabgrass [1, 14]: 8
Crabgrass plant response rating [1, 15]: 9
Plant response rating, Crabgrass [1, 16]: 9
Crabgrass plant response rating [1, 8]: 9
Crabgrass plant response rating [1, 17]: 10
Plant response rating, Crabgrass [1, 18]: 10
Plant response rating, Soybean [2, 6]: 5
Plant response rating, Soybean [2, 14]: 7
Soybean plant response rating [2, 15]: 8
Plant response rating, Soybean [2, 16]: 8
Soybean plant response rating [2, 8]: 2
Soybean plant response rating [2, 17]: 2
Plant response rating, Soybean [2, 18]: 7
Plant response rating, Wheat [3, 6]: 0
Plant response rating, Wheat [3, 14]: 0
Wheat plant response rating [3, 15]: 2
Plant response rating, Wheat [3, 16]: 8
Wheat plant response rating [3, 8]: 1
Wheat plant response rating [3, 17]: 3
Plant response rating, Wheat [3, 18]: 7
Plant response rating, Wild oats [4, 6]: 0
Plant response rating, Wild oats [4, 14]: 2
Wild oats plant response rating [4, 15]: 4
Plant response rating, Wild oats [4, 16]: 7
Wild oats plant response rating [4, 8]: 5
Wild oats plant response rating [4, 17]: 7
Plant response rating, Wild oats [4, 18]: 8
Plant response rating, S. Flatsedge (0 to 10 scale, 0 is no effect, 10 is complete control) [5, 19]: 0
S. Flatsedge plant response rating (0 to 10 scale, 0 is no effect, 10 is complete control) [5, 20]: 0
S. Flatsedge plant response rating [5, 21]: 0
S. Flatsedge plant response rating ([5]; Rate 500 g/ha, Pre-emergence section of Table B, 0 to 10 scale (0 no effect, 10 complete control)): 0

CC(C)N(C(=O)n1oc(=O)n(-c2ccc3ccccc3c2)c1=O)c1ccc(Cl)cc1 [Compound 333]
Plant response rating, Crabgrass [1, 22]: 0
Crabgrass plant response rating [1, 23]: 0
Crabgrass plant response rating (0 to 10 scale) ([1]; Preemergence, Rate 125 g/ha): 0
Crabgrass plant response rating [1, 10]: 0
Crabgrass plant response rating [1, 18]: 3
Crabgrass plant response rating [1, 24]: 0
Plant response rating, Crabgrass [1, 13]: 0
Plant response rating, Soybean [2, 22]: 2
Soybean plant response rating [2, 23]: 0
Soybean plant response rating (0 to 10 scale) ([2]; Preemergence, Rate 125 g/ha): 0
Soybean plant response rating [2, 10]: 0
Soybean plant response rating [2, 18]: 0
Soybean plant response rating [2, 24]: 2
Plant response rating, Soybean [2, 13]: 4
Plant response rating, Wheat [3, 22]: 0
Wheat plant response rating [3, 23]: 0
Wheat plant response rating (0 to 10 scale) ([3]; Preemergence, Rate 125 g/ha): 0
Wheat plant response rating [3, 10]: 0
Wheat plant response rating [3, 18]: 0
Wheat plant response rating [3, 24]: 0
Plant response rating, Wheat [3, 13]: 0
Plant response rating, Wild oats [4, 22]: 0
Wild oats plant response rating [4, 23]: 0
Wild oats plant response rating (0 to 10 scale) ([4]; Preemergence, Rate 125 g/ha): 0
Wild oats plant response rating [4, 10]: 0
Wild oats plant response rating [4, 18]: 0
Wild oats plant response rating [4, 24]: 0
Plant response rating, Wild oats [4, 13]: 0
S. Flatsedge plant response rating ([5]; Pre-emergence, Rate 1000 g/ha, scale 0 to 10 (0 no effect, 10 complete control)): 0
S. Flatsedge plant response rating ([5]; Rate 125 g/ha, Pre-emergence, flood test species, scale 0 to 10 where 0 is no effect and 10 is complete control): 0
S. Flatsedge plant response rating ([5]; Rate 250 g/ha, Pre-emergence, flood-test species, scale 0 to 10, 0 is no effect, 10 is complete control): 0
S. Flatsedge plant response rating [5, 25]: 0

CC(C)N(C(=O)n1oc(=O)n(C(C)C(=O)N(C)C)c1=O)c1ccccc1 (stereo not drawn) [Compound 479]
Crabgrass plant response rating [1, 26]: 6
Crabgrass plant response rating [1, 16]: 9
Plant response rating, Crabgrass [1, 17]: 8
Crabgrass plant response rating [1, 27]: 9
Crabgrass plant response rating [1, 28]: 10
Crabgrass plant response rating [1, 24]: 2
Crabgrass plant response rating [1, 29]: 3
Soybean plant response rating [2, 26]: 3
Plant response rating, Soybean [2, 23]: 0
Plant response rating, Soybean [2, 17]: 0
Soybean plant response rating [2, 27]: 0
Soybean plant response rating [2, 28]: 0
Soybean plant response rating [2, 24]: 1
Soybean plant response rating [2, 29]: 1
Wheat plant response rating [3, 26]: 0
Plant response rating, Wheat [3, 23]: 0
Plant response rating, Wheat [3, 17]: 0
Wheat plant response rating [3, 27]: 3
Wheat plant response rating [3, 28]: 7
Wheat plant response rating [3, 24]: 0
Wheat plant response rating [3, 29]: 0
Wild oats plant response rating [4, 26]: 0
Plant response rating, Wild oats [4, 23]: 0
Plant response rating, Wild oats [4, 17]: 4
Wild oats plant response rating [4, 27]: 5
Wild oats plant response rating [4, 28]: 7
Wild oats plant response rating [4, 24]: 0
Wild oats plant response rating [4, 29]: 0
Plant response rating, S. Flatsedge (0 to 10 scale, 0 is no effect, 10 is complete control) [5, 19]: 0
S. Flatsedge plant response rating (0 to 10 scale, 0 is no effect, 10 is complete control) [5, 20]: 0
S. Flatsedge plant response rating [5, 21]: 0
S. Flatsedge plant response rating [5, 25]: 0
